Values joined by “and” are separate entries in the source; they are usually repeats but may differ in a detail not shown here. Equal entries are not always repeated. Toxic doses and inconclusive results are not listed. Rule as the data show it: active = T/C of 150% or more; inactive = T/C below 125%. Square brackets hold non-standard residues; d marks the D form. Peptide text beside a SMILES is read from it. ξ: configuration not given here. ξF = NC(Cc1ccccc1)C(=O)O
System: L1210 leukemia ip in BDF1 mice, survival T/C
Experiment: NCI In Vivo Anticancer Drug Screen. Data for tumor model L1210 Leukemia (intraperitoneal) in B6D2F1 (BDF1) mice
Settings: endpoint: mean survival time, higher = longer survival
Outline: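 Mice bearing the transplanted tumor received compound or vehicle. Survival of the treated group was divided by that of the vehicle-treated control group to give the ratio.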

[1] = dose: 100.0 mg/kg/injection, schedule: Q04DX002 (ip), vehicle: Klucel (hydroxypropylcellulose) (HPC)
[2] = dose: 200.0 mg/kg/injection, schedule: Q04DX002 (ip), vehicle: Klucel (hydroxypropylcellulose) (HPC)
[3] = dose: 400.0 mg/kg/injection, schedule: Q04DX002 (ip), vehicle: Klucel (hydroxypropylcellulose) (HPC)
[4] = dose: 3.12 mg/kg/injection, schedule: Q01DX009 (ip), vehicle: saline
[5] = dose: 6.25 mg/kg/injection, schedule: Q01DX009 (ip), vehicle: saline
[6] = dose: 12.5 mg/kg/injection, schedule: Q01DX009 (ip), vehicle: saline
[7] = dose: 25.0 mg/kg/injection, schedule: Q01DX009 (ip), vehicle: saline
[8] = dose: 25.0 mg/kg/injection, schedule: Q04DX003 (ip), vehicle: saline
[9] = dose: 50.0 mg/kg/injection, schedule: Q01DX009 (ip), vehicle: saline
[10] = dose: 50.0 mg/kg/injection, schedule: Q04DX003 (ip), vehicle: saline
[11] = dose: 100.0 mg/kg/injection, schedule: Q01DX009 (ip), vehicle: saline with Tween-80
[12] = dose: 100.0 mg/kg/injection, schedule: Q04DX003 (ip), vehicle: saline with Tween-80
[13] = dose: 200.0 mg/kg/injection, schedule: Q04DX003 (ip), vehicle: saline with Tween-80
[14] = dose: 400.0 mg/kg/injection, schedule: Q04DX003 (ip), vehicle: saline with Tween-80
[15] = dose: 100.0 mg/kg/injection, schedule: Q01DX001 (ip), vehicle: carboxymethylcellulose (CMC)
[16] = dose: 100.0 mg/kg/injection, schedule: Q01DX001 (ip), vehicle: saline
[17] = dose: 100.0 mg/kg/injection, schedule: Q04DX003 (ip), vehicle: saline
[18] = dose: 200.0 mg/kg/injection, schedule: Q01DX001 (ip), vehicle: carboxymethylcellulose (CMC)
[19] = dose: 200.0 mg/kg/injection, schedule: Q01DX001 (ip), vehicle: saline
[20] = dose: 200.0 mg/kg/injection, schedule: Q04DX003 (ip), vehicle: saline
[21] = dose: 400.0 mg/kg/injection, schedule: Q01DX001 (ip), vehicle: carboxymethylcellulose (CMC)
[22] = dose: 400.0 mg/kg/injection, schedule: Q01DX001 (ip), vehicle: saline
[23] = dose: 400.0 mg/kg/injection, schedule: Q04DX003 (ip), vehicle: saline
[24] = dose: 100.0 mg/kg/injection, schedule: Q01DX009 (ip), vehicle: Klucel (hydroxypropylcellulose) (HPC)
[25] = dose: 100.0 mg/kg/injection, schedule: Q04DX003 (ip), vehicle: Klucel (hydroxypropylcellulose) (HPC)
[26] = dose: 200.0 mg/kg/injection, schedule: Q01DX009 (ip), vehicle: saline with Tween-80
[27] = dose: 200.0 mg/kg/injection, schedule: Q04DX003 (ip), vehicle: Klucel (hydroxypropylcellulose) (HPC)
[28] = dose: 400.0 mg/kg/injection, schedule: Q01DX009 (ip), vehicle: saline with Tween-80
[29] = dose: 400.0 mg/kg/injection, schedule: Q04DX003 (ip), vehicle: Klucel (hydroxypropylcellulose) (HPC)
[30] = dose: 200.0 mg/kg/injection, schedule: Q01DX009 (ip), vehicle: Klucel (hydroxypropylcellulose) (HPC)
[31] = dose: 400.0 mg/kg/injection, schedule: Q01DX009 (ip), vehicle: Klucel (hydroxypropylcellulose) (HPC)

Measured: T/C

CNC(=O)c1ccc(Cl)c(S(=O)(=O)NC)c1
inactive: [1] 100 % of control | [2] 104 % of control | [3] 107 % of control

CN=C1C=C(NC)C(F)(F)C1(F)F
inactive: dose: 6.25 mg/kg/injection, schedule: Q01DX009 (ip), vehicle: saline sonified 96 % of control | dose: 12.5 mg/kg/injection, schedule: Q01DX009 (ip), vehicle: saline sonified 100 % of control | dose: 12.5 mg/kg/injection, schedule: Q04DX003 (ip), vehicle: Klucel (hydroxypropylcellulose) (HPC) 98 % of control | dose: 25.0 mg/kg/injection, schedule: Q01DX009 (ip), vehicle: saline sonified 91 % of control | dose: 25.0 mg/kg/injection, schedule: Q04DX003 (ip), vehicle: Klucel (hydroxypropylcellulose) (HPC) 98 % of control | dose: 50.0 mg/kg/injection, schedule: Q04DX003 (ip), vehicle: Klucel (hydroxypropylcellulose) (HPC) 97 % of control

CC(CN1CCN(C)CC1)CN1c2ccccc2Sc2ccc(C(F)(F)F)cc21 (centres undefined)
inactive: [4] 101 % of control | [5] 106 % of control | [6] 113 % of control | dose: 25.0 mg/kg/injection, schedule: Q01DX009 (ip), vehicle: saline with Tween-80 111 % of control | [7] 117 % of control | [8] 101 % of control | dose: 50.0 mg/kg/injection, schedule: Q01DX009 (ip), vehicle: saline with Tween-80 111 % of control | [9] 98 % of control | [10] 113 % of control | [11] 96 % of control | [12] 107 % of control

O=[N+]([O-])c1ccc(C(=Nc2ccccc2)Nc2ccccc2)cc1
inactive: [12] 101 % of control | [13] 98 % of control | [14] 98 % of control

O=C1NC(=O)C(c2ccccc2)(c2ccc(Cl)cc2Cl)N1 (centres undefined)
inactive: [15] 100 % of control | [16] 121 % of control | dose: 100.0 mg/kg/injection, schedule: Q01DX009 (ip), vehicle: saline 90 % of control | [17] 86 % of control | [18] 110 % of control | [19] 97 % of control | dose: 200.0 mg/kg/injection, schedule: Q01DX009 (ip), vehicle: saline 87 % of control | [20] 102 % of control | [21] 105 % of control | [22] 95 % of control | dose: 400.0 mg/kg/injection, schedule: Q01DX009 (ip), vehicle: saline 89 % of control | [23] 93 % of control

N#CN=C([S-])[S-].N#CN=C([S-])[S-].[Cu]
inactive: [5] 102 % of control | [6] 96 % of control | [7] 93 % of control

COc1ccc(Cl)cc1N
inactive: [24] 86 % of control | [11] 100 % of control | [25] 93 % of control | [26] 94 % of control | [27] 92 % of control | [28] 104 % of control

CCCCCCCCCCCCCCCCCCSc1ccccc1
inactive: [25] 93 % of control | [27] 93 % of control | [29] 94 % of control

NC(Cc1ccccc1)C(=O)NCC(=O)NCC(=O)O (stereo not drawn) (H-[ξF]-Gly-Gly-OH)
inactive: [11] 107 % of control | [12] 102 % of control | [26] 91 % of control | [13] 104 % of control | [28] 89 % of control | [14] 98 % of control

COc1cccc(NC(=S)NN(C)C)c1
inactive: [1] 94 % of control | [2] 122 % of control | [3] 112 % of control

Cc1nc2c(c(=O)[nH]1)OCN(C)C2
inactive: dose: 50.0 mg/kg/injection, schedule: Q01DX001 (ip), vehicle: saline 104 % of control | [16] 101 % of control | [19] 109 % of control | [22] 122 % of control

COC(=O)/C(C)=C\C=C(/C)C(=O)OC
inactive: [17] 100 % of control | [20] 116 % of control | [23] 97 % of control

CN(C)CCN1C(=O)CC(c2ccccc2)Sc2ccccc21 (centres undefined)
inactive: [4] 98 % of control | [5] 118 % of control | [6] 101 % of control | [7] 107 % of control | [8] 102 % of control | [9] 113 % of control | [10] 113 % of control

Cc1cccc2c(=O)c3ccccc3oc12
inactive: [16] 98 % of control and 104 % of control | [19] 95 % of control and 101 % of control | [22] 93 % of control and 97 % of control

Nc1c(-c2ccccc2)[nH][nH]c1=O
inactive: dose: 100.0 mg/kg/injection, schedule: Q01DX001 (ip), vehicle: Klucel (hydroxypropylcellulose) (HPC) 91 % of control | [24] 92 % of control | [25] 100 % of control | dose: 200.0 mg/kg/injection, schedule: Q01DX001 (ip), vehicle: Klucel (hydroxypropylcellulose) (HPC) 99 % of control | [30] 92 % of control | [27] 102 % of control | dose: 400.0 mg/kg/injection, schedule: Q01DX001 (ip), vehicle: Klucel (hydroxypropylcellulose) (HPC) 94 % of control | [31] 93 % of control | [29] 104 % of control

CC[Si](Cl)(CC)c1ccccc1
inactive: [16] 93 % of control | dose: 100.0 mg/kg/injection, schedule: Q01DX001 (sc), vehicle: olive oil, sesame oil, peanut oil 107 % of control | [19] 90 % of control | dose: 200.0 mg/kg/injection, schedule: Q01DX001 (sc), vehicle: olive oil, sesame oil, peanut oil 107 % of control | dose: 400.0 mg/kg/injection, schedule: Q01DX001 (sc), vehicle: olive oil, sesame oil, peanut oil 102 % of control
active: [22] 195 % of control

CCOC(=O)C(=Cc1ccccc1Cl)C(=O)OCC
inactive: [24] 88 % of control | [25] 104 % of control | [30] 99 % of control | [27] 90 % of control

CCCCCC(=O)Oc1ccccc1C(=O)O
inactive: dose: 50.0 mg/kg/injection, schedule: Q01DX001 (ip), vehicle: carboxymethylcellulose (CMC) 100 % of control | [15] 100 % of control | [18] 97 % of control | [21] 92 % of control

O=C(O)c1ccc(/C=N/N=C2c3ccccc3-c3ccccc32)cc1
inactive: dose: 75.0 mg/kg/injection, schedule: Q01DX001 (ip), vehicle: other 91 % of control | dose: 150.0 mg/kg/injection, schedule: Q01DX001 (ip), vehicle: other 86 % of control | dose: 300.0 mg/kg/injection, schedule: Q01DX001 (ip), vehicle: other 95 % of control

CC(C)C(=O)OCC1CC2C=CC1C2 (centres undefined)
inactive: dose: 222.0 mg/kg/injection, schedule: Q01DX Z (ip), vehicle: saline 96 % of control | dose: 333.0 mg/kg/injection, schedule: Q01DX Z (ip), vehicle: saline 104 % of control | dose: 500.0 mg/kg/injection, schedule: Q01DX Z (ip), vehicle: saline 98 % of control

CC1=C(C)CP(C)(=O)C1
inactive: [12] 93 % of control | [13] 91 % of control | [14] 86 % of control

O=NN(CC(=O)O)Cc1ccc(Cl)cc1
inactive: dose: 100.0 mg/kg/injection, schedule: Q01DX Z (ip), vehicle: saline 102 % of control | dose: 200.0 mg/kg/injection, schedule: Q01DX Z (ip), vehicle: saline 102 % of control

O=C1CCC2(CCC(=O)c3ccccc32)C(=O)N1 (centres undefined)
inactive: dose: 50.0 mg/kg/injection, schedule: Q01DX009 (ip), vehicle: Klucel (hydroxypropylcellulose) (HPC) 104 % of control | [24] 104 % of control | [25] 93 % of control | [30] 104 % of control | [27] 93 % of control | [31] 108 % of control | [29] 100 % of control
